Experimental data taken from patent US20230157288A1, “PEST CONTROL METHOD, PEST CONTROL AGENT COMPOSITION, AND PEST CONTROL AGENT SET” (priority 2020, published 2023).
Structures can show the parent of a compound that is named as a salt. Where two headings read alike, the source gives them in different places.

What was measured:
Format in all cases: in vivo
Plutella xylostella = test: Test for confirming effect on Plutella xylostella (cabbage leaf immersion, insecticidal rate); details: single chemical
Protocol: Test for Confirming Effect on Plutella xylostella
A flowable agent containing the compound A was diluted with water containing RABIDEN® 3S diluted 5000 times to prepare chemical solutions A containing the compound A at twice concentrations described in Table 3.
A preparation containing the compound B or a flowable agent containing the compound B was diluted with water containing RABIDEN 3S diluted 5000 times to prepare chemical solutions B containing the compound B at twice concentrations described in Table 3, respectively.
Cabbage leaves were immersed in a mixed solution obtained by mixing the chemical solution A and the chemical solution B in an equivalent amount for 30 seconds, and these cabbage leaves were placed in a petri dish, and five second-instar Plutella xylostella larvae were released (AB mixture application plot).
(§1) The chemical solution A and the chemical solution B were twice diluted with the water containing RABIDEN 3S diluted 5000 times to obtain a chemical solution A′ and a chemical solution B′.
Cabbage leaves were immersed in the chemical solution A′ for 30 seconds, and these cabbage leaves were placed in another petri dish, and five second-instar Plutella xylostella larvae were released (A single application plot). Cabbage leaves were immersed in the chemical solution B′ for 30 seconds, and these cabbage leaves were placed in another petri dish, and five second-instar Plutella xylostella larvae were released (B single application plot).
Then, these petri dishes were placed in a thermostatic chamber at a temperature of 25° C. and a humidity of 60%. Three days after the larva release, viability determination was performed, and the insecticidal rate was calculated by the following equation. The test was repeated twice.
(§2) Insecticidal rate (%)=(the number of dead insects/the number of tested insects)×100
(§3) To show the degree of a synergistic effect, the “effectiveness expectation” was calculated based on the Colby method. When the effectiveness is higher than the “effectiveness expectation”, it is determined that there is a synergistic effect.
(§4) Expectation of insecticidal rate (%) (E)=X+Y−XY/100
(§5) X: measurement of insecticidal rate in B single application plot (%)
(§6) Y: measurement of insecticidal rate in A single application plot (%)

Phyllotreta striolata = test: Test for confirming effect on Phyllotreta striolata (bok choy seedling sprinkling, insecticidal rate)
Protocol: Test for Confirming Effect on Phyllotreta striolata
A flowable agent containing the compound A was diluted with water containing RABIDEN 3S diluted 5000 times to prepare chemical solutions A containing the compound A at twice concentrations described in Table 5.
A preparation containing the compound B or a flowable agent containing the compound B was diluted with water containing RABIDEN 3S diluted 5000 times to prepare chemical solutions B containing the compound B at twice concentrations described in Table 5.
A mixed solution obtained by mixing the chemical solution A and the chemical solution B in an equivalent amount was sprinkled on bok choy seedlings (at the seventh true leaf stage) planted in 9-cm pots. After air dry, these bok choy seedlings were placed in plastic cups, and ten Phyllotreta striolata imagoes were released (AB mixture application plot).
as §1
The chemical solution A′ was sprinkled on bok choy seedlings (at the seventh true leaf stage) planted in 9-cm pots. After air dry, these bok choy seedlings were placed in plastic cups, and ten Phyllotreta striolata imagoes were released (A single application plot). The chemical solution B′ was sprinkled on bok choy seedlings (at the seventh true leaf stage) planted in 9-cm pots. After air dry, these bok choy seedlings were placed in plastic cups, and ten Phyllotreta striolata imagoes were released (B single application plot).
Then, the bok choy seedlings sprinkled with the chemical solutions were placed in a thermostatic chamber at a temperature of 25° C. and a humidity of 60%, viability determination was performed 6 days after the insect release, and the insecticidal rate was calculated by the following equation. The test was repeated twice.
Insecticidal rate (%)=(the number of the dead insects/the number of tested insects)×100
as §3, §4, §5, §6

Aphis gossypii = test: Test for confirming effect on Aphis gossypii (cucumber sprinkling, insecticidal rate)
Protocol: Test for confirming effect on Aphis gossypii A flowable agent containing the compound A was diluted with water containing RABIDEN 3S diluted 5000 times to prepare chemical solutions A containing the compound A at twice concentrations described in Table 4.
A preparation containing the compound B or a flowable agent containing the compound B was diluted with water containing RABIDEN 3S diluted 5000 times to prepare chemical solutions B containing the compound B at twice concentrations described in Table 4.
First, 9-cm pots were sown with cucumbers. Aphis gossypii female imagoes were released on the cucumbers 10 days after the sprouting. The borne first-instar larvae were left, and the female imagoes were removed on the next day. A mixed solution obtained by mixing the chemical solution A and the chemical solution B in an equivalent amount was sprinkled on the cucumbers (AB mixture application plot).
as §1
The chemical solution A′ was sprinkled on the cucumbers sown with the first-instar larvae by the same method as in the AB mixture application plot (A single application plot). The chemical solution B′ was sprinkled on the cucumbers sown with the first-instar larvae by the same method as in the AB mixture application plot (B single application plot).
Then, the cucumbers sprinkled with the chemical solutions were placed in a thermostatic chamber at a temperature of 25° C. and a humidity of 60%, the viability of the Aphis gossypii was inspected after 6 days, and the insecticidal rate was calculated by the following equation. The test was repeated twice.
as §2, §3, §4, §5, §6

[1] = Aphis gossypii, 144 h, single chemical, 0.12 ppm, after 6 days, read-out: Effectiveness Measurement (insecticidal rate)
[2] = Plutella xylostella, read-out: Effectiveness Measurement (insecticidal rate)
[3] = Aphis gossypii, 144 h, single chemical, 2 ppm, after 6 days, read-out: Effectiveness Measurement (insecticidal rate)
[4] = Phyllotreta striolata, 144 h, single application, 31 ppm, Phyllotreta striolata imagoes, 6 days after release, read-out: Effectiveness Measurement (insecticidal rate)
[5] = single chemical, 0.12 ppm, after 6 days
[6] = Phyllotreta striolata, 144 h, single application, Phyllotreta striolata imagoes, 6 days after release, read-out: Effectiveness Measurement (insecticidal rate)
[7] = Aphis gossypii, 144 h, single chemical, after 6 days, read-out: Effectiveness Measurement (insecticidal rate)
[8] = Plutella xylostella, 0.5 ppm, read-out: Effectiveness Measurement (insecticidal rate)

Compound: N#Cc1ccc(CC(=NNC(=O)Nc2ccc(OC(F)(F)F)cc2)c2cccc(C(F)(F)F)c2)cc1 (mixture of isomers) [Metaflumizone, metaflumizone]
- Effectiveness Measurement (insecticidal rate) (Plutella xylostella; 0.5 ppm): 20%
- Effectiveness Measurement (insecticidal rate) (Phyllotreta striolata; single application, 31 ppm, Phyllotreta striolata imagoes, 6 days after release): 40%

Compound: Cc1c(COC(=O)[C@@H]2[C@H](/C=C(\Cl)C(F)(F)F)C2(C)C)cccc1-c1ccccc1 (racemic) [Bifenthrin]
- pest or weed control at 0.03 ppm (Aphis gossypii; Aphis gossypii, 144 h, single chemical, 0.03 ppm, after 6 days, read-out: Effectiveness Measurement (insecticidal rate)): 42%
- pest or weed control at 125 ppm (Plutella xylostella; Plutella xylostella, 125 ppm, read-out: Effectiveness Measurement (insecticidal rate)): 40%

Compound: COP(=O)(NC(C)=O)SC (stereo not shown) [Acephate, acephate]
- pest or weed control at 31 ppm (Aphis gossypii; Aphis gossypii, 144 h, read-out: Effectiveness Measurement (insecticidal rate)): 50%
- pest or weed control at 8 ppm (Phyllotreta striolata; Phyllotreta striolata, 144 h, read-out: Effectiveness Measurement (insecticidal rate)): 40%

Compound: C/C(=N\C#N)N(C)Cc1ccc(Cl)nc1 [Acetamiprid, acetamiprid]
- pest or weed control at 0.12 ppm (Aphis gossypii; [1]): 40%
- pest or weed control at 8 ppm (Plutella xylostella; [2]): 10%
- pest or weed control at 8 ppm (Phyllotreta striolata; Phyllotreta striolata, 144 h, single application, 8 ppm, Phyllotreta striolata imagoes, 6 days after release, read-out: Effectiveness Measurement (insecticidal rate)): 20%

Compound: CC(C)N1C(=O)N(c2ccccc2)CS/C1=N\C(C)(C)C [Buprofezin]
- pest or weed control at 31 ppm (Aphis gossypii; Aphis gossypii, 144 h, single chemical, 31 ppm, after 6 days, read-out: Effectiveness Measurement (insecticidal rate)): 33%

Compound: CNC(=O)Oc1cccc2c1OC(C)(C)C2 [Carbofuran, carbofuran]
- pest or weed control at 2 ppm (Aphis gossypii; [3]): 14%
- pest or weed control at 2 ppm (Plutella xylostella; [2]): 10%
- pest or weed control at 31 ppm (Phyllotreta striolata; [4]): 20%

Compound: CN(C)C(CSC(N)=O)CSC(N)=O [Cartap hydrochloride, cartap hydrochloride]
- pest or weed control at 2 ppm (Plutella xylostella; [2]): 40%
- pest or weed control at 31 ppm (Phyllotreta striolata; [4]): 60%

Compound: CCOCn1c(-c2ccc(Cl)cc2)c(C#N)c(Br)c1C(F)(F)F [Chlorfenapyr, chlorfenapyr]
- pest or weed control at 2 ppm (Aphis gossypii; [3]): 6%
- pest or weed control at 2 ppm (Plutella xylostella; [2]): 20%
- pest or weed control at 2 ppm (Phyllotreta striolata; Phyllotreta striolata, 144 h, single application, 2 ppm, Phyllotreta striolata imagoes, 6 days after release, read-out: Effectiveness Measurement (insecticidal rate)): 40%

Compound: CCS(=O)(=O)c1cc(C2CC2)cnc1-c1ncc(C=C(Cl)C(F)(F)F)n1C [Compound (II)]
- pest or weed control at 0.12 ppm (Aphis gossypii; [1]): 18%
- Effectiveness Measurement (insecticidal rate) (Aphis gossypii; [5]): 18%
- pest or weed control at 0.12 ppm (Plutella xylostella; Plutella xylostella, 0.12 ppm, read-out: Effectiveness Measurement (insecticidal rate)): 10%
- Effectiveness Measurement (insecticidal rate) (Plutella xylostella; 0.12 ppm): 10%
- pest or weed control at 0.5 ppm (Phyllotreta striolata; [6]): 20%

Compound: CCS(=O)(=O)c1cc(C2CC2)cnc1-c1ncc(C(F)C(F)(C(F)(F)F)C(F)(F)F)n1C (stereo not shown) [Compound (III)]
- pest or weed control at 0.5 ppm (Aphis gossypii; [7]): 31%
- pest or weed control at 0.5 ppm (Plutella xylostella; [8]): 40%
- pest or weed control at 0.5 ppm (Phyllotreta striolata; [6]): 20%

Compound: CCS(=O)(=O)c1cc(C(F)(F)F)cnc1-c1ncc(/C=C(\Cl)C(F)(F)C(F)(F)F)n1C [Compound (IV)]
- pest or weed control at 0.5 ppm (Aphis gossypii; [7]): 64%
- pest or weed control at 0.03 ppm (Plutella xylostella; Plutella xylostella, 0.03 ppm, read-out: Effectiveness Measurement (insecticidal rate)): 20%
- pest or weed control at 0.5 ppm (Phyllotreta striolata; [6]): 10%

Compound: CNC(=O)c1cc(C#N)cc(C)c1NC(=O)c1cc(Br)nn1-c1ncccc1Cl [Cyantraniliprole, cyantraniliprole]
- pest or weed control at 0.12 ppm (Aphis gossypii; [1]): 50%
- pest or weed control at 8 ppm (Plutella xylostella; [2]): 10%
- pest or weed control at 0.5 ppm (Phyllotreta striolata; [6]): 20%

Compound: N#Cc1nn(-c2c(Cl)cc(C(F)(F)F)cc2Cl)c(N)c1[S+]([O-])C(F)(F)F (stereo not shown) [Fipronil, fipronil]
- pest or weed control at 0.5 ppm (Aphis gossypii; [7]): 29%
- pest or weed control at 0.5 ppm (Plutella xylostella; [8]): 40%
- pest or weed control at 0.12 ppm (Phyllotreta striolata; Phyllotreta striolata, 144 h, single application, 0.12 ppm, Phyllotreta striolata imagoes, 6 days after release, read-out: Effectiveness Measurement (insecticidal rate)): 20%

Compound: N#CCNC(=O)c1cnccc1C(F)(F)F [Flonicamid]
- Effectiveness Measurement (insecticidal rate) (Aphis gossypii; [5]): 21%

Compound: CON=CNC(=O)c1ccc(C2=NOC(c3cc(Cl)cc(Cl)c3)(C(F)(F)F)C2)cc1C (stereo not shown) [Fluxametamide, fluxametamide]
- Effectiveness Measurement (insecticidal rate) (Aphis gossypii; single chemical, 2 ppm, after 6 days): 60%
- Effectiveness Measurement (insecticidal rate) (Plutella xylostella; 0.12 ppm): 40%
- Effectiveness Measurement (insecticidal rate) (Phyllotreta striolata; single application, 2 ppm, Phyllotreta striolata imagoes, 6 days after release): 20%

Compound: CC1=NNC(=O)N(/N=C/c2cccnc2)C1 [Pymetrozine]
- pest or weed control at 0.12 ppm (Aphis gossypii; [1]): 68%

Compound: CCc1ccc(C(=O)NN(C(=O)c2cc(C)cc(C)c2)C(C)(C)C)cc1 [Tebufenozide]
- pest or weed control at 31 ppm (Plutella xylostella; Plutella xylostella, 31 ppm, read-out: Effectiveness Measurement (insecticidal rate)): 40%

Compound: O=C(NC(=O)c1c(F)cccc1F)Nc1cc(Cl)c(F)c(Cl)c1F [Teflubenzuron]
- pest or weed control at 0.5 ppm (Plutella xylostella; [8]): 40%

Compound: CCc1nn(C)c(C(=O)NCc2ccc(Oc3ccc(C)cc3)cc2)c1Cl [Tolfenpyrad]
- pest or weed control at 0.12 ppm (Aphis gossypii; [1]): 18%
- pest or weed control at 8 ppm (Plutella xylostella; [2]): 20%

Compound: Abamectin
- Effectiveness Measurement (insecticidal rate) (Plutella xylostella; 0.5 ppm): 40%

Compound: Spinetoram
- Effectiveness Measurement (insecticidal rate) (Plutella xylostella; 0.0076 ppm): 40%
